pIC50: −log10 of the molar value.

The assay has as its target CDK2/Cyclin E1 (Homo sapiens, UniProt P24941). The assay is described as follows: CDK2/Cyclin E1 Caliper LabChip EZ Reader mobility shift assay. Also on record: purchased Eurofins 14-475. As to conditions: read-out: Caliper Assay (CDK2/CCNE1): IC50. The class given is biochemical. The method in brief:
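Substrate-to-product conversion of fluorescent peptide (1.5 μM final) read by capillary electrophoresis after 100 min reaction, EDTA-quenched. Enzyme (2.5 nM final) and ATP (100 μM final) were preincubated 30 min with inhibitor dilutions first. % activity vs concentration fitted four-parameter for IC50.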
On to `C[C@H](NC(=O)[C@@H]1CN(C(=O)c2cnn(Cc3ccccc3)c2)CC12CN(C(=O)[C@H]1CC1(C)C)C2)c1cccc(F)c1` [I-127A], for which the pIC50 is 5.00 to 6.00.
`CC1(C)C[C@@H]1C(=O)N1CC2(CN(C(=O)c3cncs3)C[C@H]2C(=O)NC(c2cccc(C3CCCCC3)n2)C2CCOC2)C1` (some centres unmarked) [I-493]: the pIC50 was 7.00 to 8.00.
For the compound `CNC(=O)[C@@H](NC(=O)[C@@H]1CN(C(=O)c2cnn(Cc3ccccc3)c2)CC12CN(C(=O)[C@H]1CC1(C)C)C2)[C@@H](C)N(CC1CCCCC1)C(C)=O` [I-273, (S)-6-(1-benzyl-1H-pyrazole-4-carbonyl)-N-((2S,3R)-3-(N-(cyclohexylmethyl)acetamido)-1-(methylamino)-1-oxobutan-2-yl)-2-((S)-2,2-dimethylcyclopropane-1-carbonyl)-2,6-diazaspiro[3.4]octane-8-carboxamide], the pIC50 was under 5.00.
The same measure for `C[C@@H](OCC1CCCCC1)[C@H](NC(=O)C1CN(C(=O)c2cnn(Cc3ccccc3)c2)CC12CN(C(=O)[C@H]1CC1(C)C)C2)C(=O)N1CC2(CCC2)C1` (some centres unmarked) [I-107]: at least 8.00; for `CNC(=O)[C@@H](NC(=O)[C@@H]1CN(C(=O)c2cncs2)CC12CN(C(=O)[C@H]1CC1(C)C)C2)[C@H](O)CC1CCCCC1` [I-379]: under 5.00; for `CNC(=O)[C@@H](NC(=O)C1(F)CN(C(=O)c2cnn(Cc3ccccc3)c2)CC12CN(C(=O)[C@H]1CC1(C)C)C2)[C@@H](C)OCC1CCCCC1` (some centres unmarked) [I-501]: 7.00 to 8.00.
As to `C[C@@H](OCC1(C(F)(F)F)CC1)[C@H](NC(=O)[C@@H]1CN(C(=O)c2cncs2)CC12CN(C(=O)[C@H]1CC1(C)C)C2)C(=O)N1CCCCC1` [I-285], the pIC50 was 6.00 to 7.00.
The same measure for `CC1(C)C[C@@H]1C(=O)N1CC2(CN(C(=O)c3cnn(Cc4ccccc4)c3)C[C@H]2C(=O)N[C@H]2CCCN(C(=O)c3ccccc3)C2)C1` [I-83A]: 5.00 to 6.00; for `CNC(=O)[C@@H](NC(=O)[C@H]1CN(C(=O)c2cnn(Cc3ccccc3)c2)CC12CN(C(=O)C1(C#N)CC1)C2)[C@@H](C)OCc1ccccc1` [I-73B]: under 5.00.
As for `Cc1ccc(CNC(=O)[C@@H]2CN(C(=O)c3cnn(Cc4ccncc4)c3)CC23CN(C(=O)[C@H]2CC2(C)C)C3)nn1` [I-418], the pIC50 is under 5.00.
On to `CN(C)C(=O)C(NC(=O)[C@@H]1CN(C(=O)c2cncs2)CC12CN(C(=O)C(C)(C)C1CC1)C2)c1cccc(C2CCOCC2)n1` (some centres unmarked) [I-340], for which the pIC50 is 5.00 to 6.00.
The same measure for `C[C@@H](OCc1ccccc1)[C@H](NC(=O)C1CN(C(=O)c2cnn(Cc3ccccc3)c2)CC12CN(C(=O)[C@H]1CC1(C)C)C2)C(=O)N1CCCC(CO)C1` (some centres unmarked) [I-98]: 7.00 to 8.00; for `CNC(=O)[C@@H](NC(=O)[C@H]1CN(C(=O)c2cnn(Cc3ccccc3)c2)CC12CN(C(=O)[C@H]1CC1(C)C)C2)[C@@H](C)OCC1CCOCC1` [I-119B]: 5.00 to 6.00; for `CNC(=O)[C@@H](NC(=O)[C@@H]1CN(C(=O)c2cnn(Cc3ccccc3)c2)CC12CN(C(=O)[C@H]1CC1(C)C)C2)[C@@H](C)OCC(C)(C)C` [I-130A]: 7.00 to 8.00.
`CNC(=O)[C@@H](NC(=O)[C@@H]1CN(C(=O)C2CCNC2)CC12CN(C(=O)[C@H]1CC1(C)C)C2)[C@@H](C)OCc1ccccc1` (stereo partly drawn) [I-70A, (8S)—N-((2S,3R)-3-(benzyloxy)-1-(methylamino)-1-oxobutan-2-yl)-2-((S)-2,2-dimethylcyclopropane-1-carbonyl)-6-(pyrrolidine-3-carbonyl)-2,6-diazaspiro[3.4]octane-8-carboxamide]: the pIC50 was under 5.00.
For `C[C@@H](OCc1ccccc1)[C@H](NC(=O)C1CN(C(=O)c2cnn(Cc3ccccc3)c2)CC12CN(C(=O)[C@H]1CC1(C)C)C2)C(=O)N1CCC(F)(F)CC1` (some centres unmarked) [I-85], the pIC50 is 7.00 to 8.00.
To `C[C@@H](OCC1CCCCC1)[C@@H](CO)NC(=O)[C@H]1CN(C(=O)c2cnn(Cc3ccccc3)c2)CC12CN(C(=O)[C@H]1CC1(C)C)C2` [I-135B] belongs 6.00 to 7.00; to `C[C@@H](OCC1CCC2(CCC2)CC1)[C@H](NC(=O)[C@@H]1CN(C(=O)c2cnn(Cc3ccccc3)c2)CC12CN(C(=O)[C@H]1CC1(C)C)C2)C(=O)N1CCC(c2cnc[nH]2)CC1` [I-444], at least 8.00.
To `C[C@@H](OCc1ccc(C(F)(F)F)cc1)[C@H](NC(=O)[C@@H]1CN(C(=O)c2cncs2)CC12CN(C(=O)[C@H]1CC1(C)C)C2)C(=O)N1C2CCC1COC2` [I-470] belongs at least 8.00; to `CC1(C)C[C@@H]1C(=O)N1CC2(CN(C(=O)c3cnn(Cc4ccccc4)c3)C[C@H]2C(=O)NCc2nc3ccccc3o2)C1` [I-230], 5.00 to 6.00.
As for `CC1(C)C[C@@H]1C(=O)N1CC2(CN(C(=O)c3cncs3)C[C@H]2C(=O)NC(c2cccc(C3CCCCC3)n2)C2CCCO2)C1` (some centres unmarked) [I-495], the pIC50 was 7.00 to 8.00.
For `COC(=O)c1ccc(C2CCN(C(=O)[C@@H](NC(=O)[C@@H]3CN(C(=O)c4cnn(Cc5ccccc5)c4)CC34CN(C(=O)[C@H]3CC3(C)C)C4)[C@@H](C)OCC3CCCCC3)CC2)cc1` [I-147], the pIC50 was at least 8.00.
To `C[C@@H](OCc1ccccc1)[C@H](NC(=O)[C@@H]1CN(C(=O)c2cncs2)CC12CN(C(=O)[C@H]1CC1(C)C)C2)C(=O)N(C)C` [I-416] belongs 7.00 to 8.00; to `C[C@@H](OCC12CCC(CC1)OC2)[C@H](NC(=O)[C@@H]1CN(C(=O)c2cncs2)CC12CN(C(=O)C(C)(C)C1CC1)C2)C(C)(C)O` [I-334], 6.00 to 7.00; to `CNC(=O)[C@@H](NC(=O)[C@@H]1CN(C(=O)c2cnn(Cc3ccccc3)c2)CC12CN(C(=O)[C@H]1CC1(C)C)C2)C(C)(C)S(=O)(=O)Cc1ccccc1` [I-199, (S)-6-(1-benzyl-1H-pyrazole-4-carbonyl)-N—((R)-3-(benzylsulfonyl)-3-methyl-1-(methylamino)-1-oxobutan-2-yl)-2-((S)-2,2-dimethylcyclopropane-1-carbonyl)-2,6-diazaspiro[3.4]octane-8-carboxamide], 6.00 to 7.00.
For the compound `CC1(C)C[C@@H]1C(=O)N1CC2(CN(C(=O)c3cnn(Cc4ccccc4)c3)C[C@H]2C(=O)N[C@H]2CCc3cc(Cl)ccc32)C1` [I-120A], the pIC50 was 6.00 to 7.00.
Take `C[C@@H](OCC1CCCCC1)[C@H](NC(=O)[C@@H]1CN(C(=O)c2cnn(Cc3ccccc3)c2)CC12CN(C(=O)[C@H]1CC1(C)C)C2)C(=O)NCCC(=O)OC(C)(C)C` [I-478]: the pIC50 was at least 8.00.
With `CNC(=O)[C@@H](NC(=O)[C@@H]1CN(C(=O)c2cncs2)CC12CN(C(=O)[C@H]1CC1(C)C)C2)[C@@H](C)OCC12CCC(CC1)CC2` [I-289], the pIC50 is at least 8.00.
For the compound `COCCNC(=O)[C@H]1CN(C(=O)c2cnn(Cc3ccccc3)c2)CC12CN(C(=O)[C@H]1CC1(C)C)C2` [I-122B], the pIC50 is under 5.00.
Turning to `C[C@@H](OCC12CCC(CC1)OC2)[C@H](NC(=O)[C@@H]1CN(C(=O)c2cncs2)CC12CN(C(=O)[C@H]1CC1(C)C)C2)C(=O)N1CCC2(CC1)COC2` [I-336], the pIC50 was at least 8.00.
The same measure for `CC1(C)C[C@@H]1C(=O)N1CC2(CN(C(=O)c3cnn(Cc4ccccc4)c3)C[C@H]2C(=O)N2CCCC(Cc3ccccc3)C2)C1` (some centres unmarked) [I-91A]: under 5.00; for `COC[C@H]1CCCN(C(=O)[C@@H](NC(=O)[C@@H]2CN(C(=O)c3cncs3)CC23CN(C(=O)[C@H]2CC2(C)C)C3)[C@@H](C)OCc2ccc(Cl)cc2F)C1` [I-317]: at least 8.00; for `C[C@@H](OCC1CCCCC1)[C@H](NC(=O)[C@H]1CN(C(=O)c2cnn(Cc3ccccc3)c2)CC12CN(C(=O)[C@H]1CC1(C)C)C2)C(=O)N1CC(C)(C)C1` [I-153B]: 5.00 to 6.00.
Take `CNC(=O)[C@@H](NC(=O)[C@H]1CN(C(=O)c2cnn(CC3CCOCC3)c2)CC12CN(C(=O)[C@H]1CC1(C)C)C2)[C@@H](C)OCC1CCCCC1` [I-121B]: the pIC50 was 5.00 to 6.00.
For `CNC(=O)C(NC(=O)[C@@H]1CN(C(=O)c2cncs2)CC12CN(C(=O)[C@H]1CC1(C)C)C2)c1cccc(N2CCOCC2)n1` (some centres unmarked) [I-422], the pIC50 was 5.00 to 6.00.
Take `CN(C(=O)[C@H]1CCCN(C(=O)[C@@H]2CN(C(=O)c3cnn(Cc4ccccc4)c3)CC23CN(C(=O)[C@H]2CC2(C)C)C3)C1)C1CCCCC1` [I-179]: the pIC50 was 5.00 to 6.00.
For `CNC(=O)[C@@H](NC(=O)[C@H]1CN(C(=O)c2cnn(Cc3ccccc3)c2)CC12CN(C(=O)[C@H]1CC1(C)C)C2)[C@H](C)OCC1CCCCC1` [I-165], the pIC50 was under 5.00.
To `CNC(=O)[C@@H](NC(=O)[C@H]1CN(C(=O)c2cnn(Cc3ccccc3)c2)CC12CN(C(=O)c1ccccc1)C2)[C@@H](C)OCc1ccccc1` [I-26B] belongs under 5.00; to `CNC(=O)[C@@H](NC(=O)[C@@H]1CN(C(=O)c2cnn(Cc3ccccc3)c2)CC12CN(C(=O)C1(C3CC3)CC1)C2)[C@@H](C)OCc1ccccc1` [I-114A], 6.00 to 7.00; to `COC[C@H]1CCCN(C(=O)[C@@H](NC(=O)[C@@H]2CN(C(=O)c3cncs3)CC23CN(C(=O)[C@H]2CC2(C)C)C3)[C@@H](C)OC[C@H]2CC[C@H](OC)CC2)C1` [I-402], 7.00 to 8.00.
In the case of `Cc1ccc(CNC(=O)[C@@H]2CN(C(=O)c3cnc(Cc4ccccc4)s3)CC23CN(C(=O)[C@H]2CC2(C)C)C3)nn1` [I-405], the pIC50 is under 5.00.
To `CNC(=O)[C@@H](NC(=O)[C@H]1CN(Cc2ccncc2)CC12CN(C(=O)[C@H]1CC1(C)C)C2)[C@@H](C)OCc1ccccc1` [I-55B] belongs under 5.00.
To `CNC(=O)[C@@H](NC(=O)[C@@H]1CN(C(=O)c2cnn(Cc3ccccc3)c2)CC12CN(C(=O)[C@H]1CC1(C)C)C2)[C@@H](C)NCC1CCCCC1` [I-269, (S)-6-(1-benzyl-1H-pyrazole-4-carbonyl)-N-((2S,3R)-3-((cyclohexylmethyl)amino)-1-(methylamino)-1-oxobutan-2-yl)-2-((S)-2,2-dimethylcyclopropane-1-carbonyl)-2,6-diazaspiro[3.4]octane-8-carboxamide] belongs 6.00 to 7.00; to `COC[C@H]1CCCN(C(=O)[C@@H](NC(=O)[C@@H]2CN(C(=O)c3cncs3)CC23CN(C(=O)C(C)(C)C2CC2)C3)[C@@H](C)OCC2CCCCC2)C1` [I-389], at least 8.00.

The record behind these values is US20240174680A1, “CDK2 INHIBITORS AND METHODS OF USING THE SAME” (Cedilla Therapeutics, Inc., priority 2021, published 2024).
